From ChEMBL document CHEMBL5543172, “Novel Isoalantolactone-Based Derivatives as Potent NLRP3 Inflammasome Inhibitors: Design, Synthesis, and Biological Characterization” (J Med Chem, 2024)
The source made the active and inactive calls. The rule behind the calls is not given here.

Columns and labels:
[1] = biological target: Sodium-dependent serotonin transporter (Homo sapiens) (UniProt P31645); assay: Inhibition of 5-HTT (unknown origin) at 1 uM relative to control
[2] = biological target: NACHT, LRR and PYD domains-containing protein 3 (Mus musculus) (UniProt Q8R4B8); assay: Inhibition of NLRP3 inflammasome activation in LPS/Nigericin induced mouse BMDM cells assessed as effect on ASC expression at 0.25 to 1 uM preincubated with LPS for 3 hrs followed by compound addition for 40 mins and further stimulated with nigericin for 40 mins by Western blot analysis; format: cell-based; conditions: dose 0.25-1 µM, time 80.0 min
Sequence of NACHT, LRR and PYD domains-containing protein 3 (Mus musculus) (Q8R4B8 whole entry, the tested form may be a part): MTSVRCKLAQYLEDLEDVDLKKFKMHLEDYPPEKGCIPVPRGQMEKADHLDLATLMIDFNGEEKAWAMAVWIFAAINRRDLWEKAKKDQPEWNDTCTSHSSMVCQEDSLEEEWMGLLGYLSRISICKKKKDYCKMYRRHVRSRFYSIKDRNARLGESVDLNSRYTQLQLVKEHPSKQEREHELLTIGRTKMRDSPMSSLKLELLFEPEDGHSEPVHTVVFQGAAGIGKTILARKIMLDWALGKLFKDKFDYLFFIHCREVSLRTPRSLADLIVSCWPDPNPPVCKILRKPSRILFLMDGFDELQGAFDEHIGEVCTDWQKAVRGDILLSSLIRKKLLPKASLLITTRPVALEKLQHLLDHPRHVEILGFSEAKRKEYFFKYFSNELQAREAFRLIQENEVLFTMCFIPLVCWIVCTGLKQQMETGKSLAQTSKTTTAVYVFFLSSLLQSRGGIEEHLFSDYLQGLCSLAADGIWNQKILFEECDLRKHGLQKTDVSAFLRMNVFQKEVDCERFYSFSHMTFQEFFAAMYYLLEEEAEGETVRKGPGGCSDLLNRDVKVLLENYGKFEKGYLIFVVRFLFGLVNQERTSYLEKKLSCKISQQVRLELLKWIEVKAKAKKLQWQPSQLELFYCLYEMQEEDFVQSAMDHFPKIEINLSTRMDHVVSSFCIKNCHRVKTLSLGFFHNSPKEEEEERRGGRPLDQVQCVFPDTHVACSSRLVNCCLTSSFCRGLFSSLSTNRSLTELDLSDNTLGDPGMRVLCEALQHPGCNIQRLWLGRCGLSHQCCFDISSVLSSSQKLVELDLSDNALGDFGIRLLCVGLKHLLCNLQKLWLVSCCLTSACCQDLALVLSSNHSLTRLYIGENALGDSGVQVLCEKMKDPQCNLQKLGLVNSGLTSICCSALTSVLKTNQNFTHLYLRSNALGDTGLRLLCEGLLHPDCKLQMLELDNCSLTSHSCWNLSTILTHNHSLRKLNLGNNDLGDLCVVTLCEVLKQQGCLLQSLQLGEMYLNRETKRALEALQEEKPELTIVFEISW

[3] = biological target: NACHT, LRR and PYD domains-containing protein 3 (Mus musculus) (UniProt Q8R4B8); assay: Inhibition of NLRP3 inflammasome activation in LPS/Nigericin induced mouse BMDM cells assessed as suppression of IL-1beta secretion preincubated with LPS for 3 hrs followed by compound addition for 40 mins and further stimulated with nigericin for 40 mins by Western blot analysis; format: cell-based; conditions: dose 0.25-1 µM, time 80.0 min
[4] = biological target: P2X purinoceptor 3 (Homo sapiens) (UniProt P56373); assay: Activation of P2X3 (unknown origin) at 1 uM relative to control
[5] = biological target: Cytochrome P450 2B6 (Homo sapiens, UniProt P20813); assay: Inhibition of CYP2B6 in human liver microsomes preincubated for 5 mins followed by NADPH addition and measured after 30 to 60 mins by LC-MS/MS analysis; format: ADME, Microsome
Sequence of Cytochrome P450 2B6 (P20813 whole entry): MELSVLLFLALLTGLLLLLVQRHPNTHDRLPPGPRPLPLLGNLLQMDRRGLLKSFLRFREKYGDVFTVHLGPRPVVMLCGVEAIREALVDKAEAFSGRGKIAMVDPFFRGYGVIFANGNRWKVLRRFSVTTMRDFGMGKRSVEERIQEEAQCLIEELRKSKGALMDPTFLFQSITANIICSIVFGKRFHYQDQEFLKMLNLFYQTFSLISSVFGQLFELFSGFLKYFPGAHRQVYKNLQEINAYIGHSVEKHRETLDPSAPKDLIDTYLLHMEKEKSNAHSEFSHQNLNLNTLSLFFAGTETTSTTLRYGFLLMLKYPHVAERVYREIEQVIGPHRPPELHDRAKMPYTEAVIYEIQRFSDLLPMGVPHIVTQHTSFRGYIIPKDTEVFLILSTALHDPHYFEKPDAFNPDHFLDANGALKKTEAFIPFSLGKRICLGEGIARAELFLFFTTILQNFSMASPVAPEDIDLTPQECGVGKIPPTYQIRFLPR

[6] = system: Mus musculus; assay: Anti-colitis activity against DSS-induced ulcerative colitis C57BL/6 mouse model assessed as reduction in TNF-alpha level at 15 to 30 mg/kg, ip by ELISA method; format: functional, organism-based; conditions: dose 15-30 mg/kg
[7] = biological target: 5-hydroxytryptamine receptor 7 (Homo sapiens) (UniProt P34969); assay: Activation of 5-HT7 receptor (unknown origin) at 1 uM relative to control
[8] = system: BMDM; assay: Induction of DNA damage in mouse BMDM cells assessed as DNA fragmentation at 1 uM measured after 24 hrs by fluorescence microscope based comet assay; format: functional, cell-based
[9] = biological target: NACHT, LRR and PYD domains-containing protein 3 (Mus musculus) (UniProt Q8R4B8); assay: Inhibition of NLRP3 inflammasome activation in LPS/Nigericin induced mouse BMDM cells assessed as suppression of caspase-1 secretion preincubated with LPS for 3 hrs followed by compound addition for 40 mins and further stimulated with nigericin for 40 mins by Western blot analysis; format: cell-based; conditions: dose 0.25-1 µM, time 80.0 min
[10] = biological target: Substance-K receptor (Homo sapiens) (UniProt P21452); assay: Inhibition of NK2 receptor (unknown origin) at 1 uM relative to control
Sequence of Substance-K receptor (Homo sapiens) (P21452 whole entry): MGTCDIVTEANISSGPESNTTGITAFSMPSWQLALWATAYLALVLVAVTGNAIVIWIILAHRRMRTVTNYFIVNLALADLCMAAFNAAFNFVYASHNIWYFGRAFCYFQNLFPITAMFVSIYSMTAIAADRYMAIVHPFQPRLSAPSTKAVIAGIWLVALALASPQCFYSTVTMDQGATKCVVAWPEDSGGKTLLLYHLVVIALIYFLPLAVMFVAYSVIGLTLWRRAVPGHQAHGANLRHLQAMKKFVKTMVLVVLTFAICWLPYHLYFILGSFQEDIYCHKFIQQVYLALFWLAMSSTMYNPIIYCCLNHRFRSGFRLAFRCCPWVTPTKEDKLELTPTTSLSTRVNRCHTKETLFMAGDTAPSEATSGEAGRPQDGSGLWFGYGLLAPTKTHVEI

[11] = biological target: Cytochrome P450 2C9 (Homo sapiens, UniProt P11712); assay: Inhibition of CYP2C9 in human liver microsomes using tolbutamide as substrate preincubated for 5 mins followed by NADPH addition and measured after 30 to 60 mins by LC-MS/MS analysis; format: ADME, Microsome
Sequence of Cytochrome P450 2C9 (P11712 whole entry): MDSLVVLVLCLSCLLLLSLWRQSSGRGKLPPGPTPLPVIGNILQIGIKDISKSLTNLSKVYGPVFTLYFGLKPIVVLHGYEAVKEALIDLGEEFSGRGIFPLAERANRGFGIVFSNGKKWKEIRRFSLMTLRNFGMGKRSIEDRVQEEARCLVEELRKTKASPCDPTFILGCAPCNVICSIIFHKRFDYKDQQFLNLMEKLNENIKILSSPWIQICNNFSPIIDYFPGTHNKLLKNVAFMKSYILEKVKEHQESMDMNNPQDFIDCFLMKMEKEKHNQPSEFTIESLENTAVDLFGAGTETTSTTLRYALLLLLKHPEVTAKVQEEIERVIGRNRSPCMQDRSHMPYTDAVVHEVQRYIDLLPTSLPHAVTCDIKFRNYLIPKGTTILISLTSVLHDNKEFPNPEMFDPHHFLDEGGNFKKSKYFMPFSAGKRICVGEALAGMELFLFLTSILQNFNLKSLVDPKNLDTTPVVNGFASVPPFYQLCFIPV

[12] = system: THP-1; assay: Binding affinity to NLRP3deltaLRR mutant in PMA- differentiated human THP-1 cells assessed as increase in thermal stability of protein at 1 uM pretreated with LPS for 3 hrs followed by compound addition at 45 to 63 degC for 2 mins by CETSA analysis; format: cell-based
[13] = biological target: Voltage-gated inwardly rectifying potassium channel KCNH2 (Homo sapiens, UniProt Q12809); assay: Inhibition of human ERG expressed in HEK293 cells; format: toxicity, cell-based
[14] = biological target: Substance-P receptor (Homo sapiens) (UniProt P25103); assay: Inhibition of NK1 receptor (unknown origin) at 1 uM relative to control
Sequence of Substance-P receptor (Homo sapiens) (P25103 whole entry): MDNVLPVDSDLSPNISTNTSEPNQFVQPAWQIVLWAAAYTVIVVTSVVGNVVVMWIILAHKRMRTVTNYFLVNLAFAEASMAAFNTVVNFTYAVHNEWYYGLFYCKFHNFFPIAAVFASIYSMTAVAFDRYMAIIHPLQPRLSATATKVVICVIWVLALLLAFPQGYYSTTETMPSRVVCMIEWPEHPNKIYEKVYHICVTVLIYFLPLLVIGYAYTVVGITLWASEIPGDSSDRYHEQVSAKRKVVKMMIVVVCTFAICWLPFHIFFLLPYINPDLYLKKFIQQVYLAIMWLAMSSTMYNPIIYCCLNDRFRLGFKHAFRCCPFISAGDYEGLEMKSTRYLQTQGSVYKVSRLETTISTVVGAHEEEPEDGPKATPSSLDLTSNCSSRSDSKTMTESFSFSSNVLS

[15] = system: THP-1; assay: Inhibition of NLRP3-NEK7 interaction in LPS/nigericin stimulated human THP-1 cells at 1 uM preincubated with LPS for 3 hrs followed by compound addition for 40 mins and further stimulated with nigericin for 40 mins by immunoprecipitation analysis; format: cell-based; conditions: time 80.0 min
[16] = Tmax in male C57BL/6 mouse at 30 mg/kg, ip measured upto 1440 mins by LC-MS/MS analysis; format: ADME, organism-based; conditions: in vivo
[17] = biological target: NACHT, LRR and PYD domains-containing protein 3 (Mus musculus) (UniProt Q8R4B8); assay: Inhibition of NLRP3 in LPS/nigericin induced […] mouse BMDM cells assessed as inhibition of IL-18 secretion 0.25 to 1 uM preincubated with LPS for 3 hrs followed by compound addition for 40 mins and further stimulated with nigericin for 40 mins by ELISA method; format: cell-based; conditions: dose 0.25-1 µM, time 80.0 min
[18] = system: Mus musculus; assay: Anti-colitis activity against DSS-induced ulcerative colitis C57BL/6 mouse model assessed as alleviation of grave ulcer formation in colon at 15 to 30 mg/kg, ip administered daily and measured after 10 days by H and E staining based analysis; format: functional, organism-based; conditions: dose 15-30 mg/kg, time 10.0 day
[19] = biological target: Androgen receptor (Homo sapiens) (UniProt P10275); assay: Activation of Androgen receptor (unknown origin) at 1 uM relative to control
[20] = biological target: Glucocorticoid receptor (Homo sapiens) (UniProt P04150); assay: Activation of GR receptor (unknown origin) at 1 uM relative to control
[21] = system: THP-1; assay: Cytotoxicity against human THP-1 cells at 4 uM measured after 24 hrs by CCK-8 method; format: functional, cell-based
[22] = biological target: Substance-K receptor (Homo sapiens) (UniProt P21452); assay: Activation of NK2 receptor (unknown origin) at 1 uM relative to control
[23] = system: BMDM; assay: Cytotoxicity against mouse BMDM cells at 4 uM measured after 24 hrs by CCK-8 method; format: toxicity, cell-based
[24] = biological target: Transient receptor potential cation channel subfamily V member 1 (Homo sapiens) (UniProt Q8NER1); assay: Activation of TRPV1 (unknown origin) at 1 uM relative to control
Sequence of Transient receptor potential cation channel subfamily V member 1 (Homo sapiens) (Q8NER1 whole entry): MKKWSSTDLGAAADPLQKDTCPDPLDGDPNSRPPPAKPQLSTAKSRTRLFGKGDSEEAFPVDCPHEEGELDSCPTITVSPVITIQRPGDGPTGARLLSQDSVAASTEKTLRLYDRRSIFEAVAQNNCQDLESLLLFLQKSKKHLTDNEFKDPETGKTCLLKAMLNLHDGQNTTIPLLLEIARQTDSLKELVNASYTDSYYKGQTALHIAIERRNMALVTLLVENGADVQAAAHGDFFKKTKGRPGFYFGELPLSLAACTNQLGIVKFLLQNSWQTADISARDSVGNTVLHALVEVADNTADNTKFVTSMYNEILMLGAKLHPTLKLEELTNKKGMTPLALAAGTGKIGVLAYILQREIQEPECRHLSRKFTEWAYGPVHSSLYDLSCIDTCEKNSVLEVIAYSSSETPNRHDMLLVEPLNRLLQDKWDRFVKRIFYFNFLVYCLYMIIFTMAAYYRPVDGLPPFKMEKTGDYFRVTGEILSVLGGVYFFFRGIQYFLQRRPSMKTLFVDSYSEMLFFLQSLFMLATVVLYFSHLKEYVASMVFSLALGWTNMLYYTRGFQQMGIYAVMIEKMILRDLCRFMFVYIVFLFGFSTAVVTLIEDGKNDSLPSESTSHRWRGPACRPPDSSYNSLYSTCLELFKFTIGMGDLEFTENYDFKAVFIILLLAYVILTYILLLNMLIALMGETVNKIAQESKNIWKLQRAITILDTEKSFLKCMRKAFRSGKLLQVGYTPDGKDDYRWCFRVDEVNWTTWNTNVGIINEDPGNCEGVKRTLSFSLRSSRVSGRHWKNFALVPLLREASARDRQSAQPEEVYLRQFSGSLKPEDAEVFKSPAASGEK

[25] = biological target: Muscarinic acetylcholine receptor M3 (Homo sapiens) (UniProt P20309); assay: Activation of muscarinic M3 receptor (unknown origin) at 1 uM relative to control
[26] = biological target: Cannabinoid receptor 2 (Homo sapiens) (UniProt P34972); assay: Inhibition of CB2 receptor (unknown origin) at 1 uM relative to control
Sequence of Cannabinoid receptor 2 (Homo sapiens) (P34972 whole entry): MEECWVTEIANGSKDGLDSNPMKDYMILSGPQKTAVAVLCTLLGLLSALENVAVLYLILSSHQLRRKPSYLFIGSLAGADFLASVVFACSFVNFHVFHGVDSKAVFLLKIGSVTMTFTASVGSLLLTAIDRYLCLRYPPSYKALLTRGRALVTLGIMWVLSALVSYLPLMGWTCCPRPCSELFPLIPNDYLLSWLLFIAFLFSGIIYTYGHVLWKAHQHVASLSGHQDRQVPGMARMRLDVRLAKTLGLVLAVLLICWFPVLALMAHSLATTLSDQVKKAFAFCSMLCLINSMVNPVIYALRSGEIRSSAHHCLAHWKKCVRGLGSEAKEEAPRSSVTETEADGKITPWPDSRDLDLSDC

[27] = biological target: Prostaglandin E2 receptor EP2 subtype (Homo sapiens) (UniProt P43116); assay: Activation of EP2 receptor (unknown origin) at 1 uM relative to control
Sequence of Prostaglandin E2 receptor EP2 subtype (Homo sapiens) (P43116 whole entry): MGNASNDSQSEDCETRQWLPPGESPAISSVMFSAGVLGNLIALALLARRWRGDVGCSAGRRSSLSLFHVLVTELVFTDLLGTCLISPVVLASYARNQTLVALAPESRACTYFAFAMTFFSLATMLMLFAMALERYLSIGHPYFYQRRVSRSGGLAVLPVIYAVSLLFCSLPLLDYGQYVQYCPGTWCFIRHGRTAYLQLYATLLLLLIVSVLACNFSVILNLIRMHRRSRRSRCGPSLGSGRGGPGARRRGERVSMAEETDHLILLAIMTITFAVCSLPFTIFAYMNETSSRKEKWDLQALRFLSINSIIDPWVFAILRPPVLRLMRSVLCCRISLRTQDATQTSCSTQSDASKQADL

[28] = MRT (0 to t) in male C57BL/6 mouse at 30 mg/kg, ip measured upto 1440 mins by LC-MS/MS analysis; format: ADME, organism-based; conditions: in vivo
[29] = system: THP-1; assay: Cytotoxicity against human THP-1 cells at 0.25 to 2 uM measured after 24 hrs by CCK-8 method; format: functional, cell-based; conditions: dose 0.25-2 µM
[30] = biological target: 3',5'-cyclic-AMP phosphodiesterase 4D (Homo sapiens) (UniProt Q08499); assay: Inhibition of PDE4D2 (unknown origin) at 1 uM relative to control
[31] = Drug distribution in C57BL/6 mouse colon at 30 mg/kg, ip measured after 8 hrs by LC-MS/MS analysis; format: ADME, organism-based; conditions: read-out: Drug uptake
[32] = biological target: Mu-type opioid receptor (Homo sapiens) (UniProt P35372); assay: Inhibition of mu opioid receptor (unknown origin) at 1 uM relative to control
[33] = system: BMDM; assay: Cytotoxicity against mouse BMDM cells at 0.25 to 2 uM measured after 24 hrs by CCK-8 method; format: toxicity, cell-based; conditions: dose 0.25-2 µM
[34] = system: THP-1; assay: Inhibition of NLRP3-ASC interaction in LPS/nigericin stimulated human THP-1 cells at 1 uM preincubated with LPS for 3 hrs followed by compound addition for 40 mins and further stimulated with nigericin for 40 mins by immunoprecipitation analysis; format: cell-based; conditions: time 80.0 min
[35] = Metabolic stability in human liver microsomes assessed as half life preincubated for 5 mins followed by NADPH addition and measured upto 60 mins by LC-MS/MS analysis; format: ADME, Microsome; conditions: time < 65 min

Sequence of Sodium-dependent serotonin transporter (Homo sapiens) (P31645 whole entry, looked up, the tested form may be a part): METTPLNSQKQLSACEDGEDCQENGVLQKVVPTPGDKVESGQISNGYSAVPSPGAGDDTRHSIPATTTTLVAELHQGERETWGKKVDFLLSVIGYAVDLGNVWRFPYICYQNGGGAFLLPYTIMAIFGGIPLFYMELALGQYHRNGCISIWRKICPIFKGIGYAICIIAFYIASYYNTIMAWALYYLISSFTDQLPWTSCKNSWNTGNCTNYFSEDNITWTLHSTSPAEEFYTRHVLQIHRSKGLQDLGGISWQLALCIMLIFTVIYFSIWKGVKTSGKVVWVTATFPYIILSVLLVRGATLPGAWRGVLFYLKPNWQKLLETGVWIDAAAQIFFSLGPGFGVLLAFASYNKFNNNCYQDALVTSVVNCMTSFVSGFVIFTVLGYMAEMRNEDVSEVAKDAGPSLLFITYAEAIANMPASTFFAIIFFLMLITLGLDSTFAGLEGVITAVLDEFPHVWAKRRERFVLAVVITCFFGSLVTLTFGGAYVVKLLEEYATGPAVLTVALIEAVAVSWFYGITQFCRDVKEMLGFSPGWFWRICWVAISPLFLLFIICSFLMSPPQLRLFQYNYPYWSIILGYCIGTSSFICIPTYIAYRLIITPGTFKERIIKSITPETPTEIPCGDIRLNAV

C=C1C(=O)O[C@@H]2C[C@@]3(C)CC[C@@H](OC(=O)c4cnc(Cl)cc4Cl)C(=C)[C@@H]3C[C@H]12
inhibition [1]: < 50%
inhibition [2]: inactive
inhibition [3]: Dose-Dependent Effect
Activity [4]: < 50%
IC50 [5]: > 100 µM
Activity [6]: Active
Activity [7]: < 50%
Activity [8]: Active
inhibition [9]: Dose-Dependent Effect
inhibition [10]: < 50%
IC50 [11]: 5.8 µM
Activity [12]: Active
IC50 [13]: 10.6 µM
inhibition [14]: < 50%
inhibition [15]: Active
Tmax [16]: 0.78 h
inhibition [17]: Active
Activity [18]: Active
Activity [19]: < 50%
Activity [20]: < 50%
Activity [21]: Active
Activity [22]: < 50%
Activity [23]: Toxic
Activity [24]: < 50%
Activity [25]: < 50%
inhibition [26]: < 50%
Activity [27]: < 50%
MRT last at 24 h [28]: 11 h
Activity [29]: inactive
inhibition [30]: < 50%
concentration at 8 h [31]: 80.2 ng/g
inhibition [32]: < 50%
Activity [33]: Non-Toxic
inhibition [34]: Active
half-life [35]: 3.04 h
